Several values for one entry are separate records, joined by “and”; a condition that tells them apart may be missing. Equal entries are not always repeated.
Target: T1, human recombinant MAO-A (Homo sapiens, UniProt P21397)
T1 construct: purchased Sigma-Aldrich
T1 sequence (P21397 1-527): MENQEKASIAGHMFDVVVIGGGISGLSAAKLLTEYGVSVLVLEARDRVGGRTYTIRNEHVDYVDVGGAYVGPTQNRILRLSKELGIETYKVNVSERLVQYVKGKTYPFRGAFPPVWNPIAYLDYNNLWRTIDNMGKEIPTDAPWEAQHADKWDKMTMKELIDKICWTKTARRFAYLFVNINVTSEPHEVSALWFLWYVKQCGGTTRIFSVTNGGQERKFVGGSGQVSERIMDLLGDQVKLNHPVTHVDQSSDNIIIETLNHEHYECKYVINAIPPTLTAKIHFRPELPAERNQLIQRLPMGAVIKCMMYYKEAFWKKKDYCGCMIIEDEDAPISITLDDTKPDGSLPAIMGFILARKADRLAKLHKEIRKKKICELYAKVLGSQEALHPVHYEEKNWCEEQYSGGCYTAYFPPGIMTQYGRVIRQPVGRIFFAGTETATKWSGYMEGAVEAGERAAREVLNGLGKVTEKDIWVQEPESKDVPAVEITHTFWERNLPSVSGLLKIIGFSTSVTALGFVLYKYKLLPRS
Experiment: MAO-A inhibition kinetics (variable substrate, Lineweaver–Burk plot)
Type: biochemical
Parameters: Michaelis-Menten best-fit Vmax of MAO-A / Michaelis-Menten best-fit Vmax of MAO-A, Average: unit not given here
Conditions: for MAO-A assay signal (luminescence) / Transformed (reciprocal of MAO-A assay signal) / Michaelis-Menten best-fit Vmax of MAO-A: N=1-3
Experimental: MAO inhibition assays were performed using a MAO-Glo™ Assay kit (Promega) according to the manufacturer’s instructions. Briefly, 1 µg of human recombinant MAO-A and MAO-B enzyme isoforms were incubated with 160 and 16 µM of MAO substrates, respectively. […] The enzyme reaction was quenched by the addition of a luciferin detection reagent. […] An equal volume of dimethyl sulfoxide (0.1%) was added to the enzyme assay as a control. After 1 h of incubation, the luminescence was measured with a multimode microplate reader (Synergy HT, BioTek, Winooski, VT, USA) to determine the MAO enzyme activities. Initially, the inhibition potential of all the test compounds was evaluated at a concentration of 100 μM. The control reaction (with no inhibitor) with vehicle (DMSO 0.1%) was set at 100% activity. To determine IC50 of the test compounds, the dose dependent enzyme assays were performed. We used range of 0.1 to 50 μM concentrations for MAO-A and 0.1 to 200 μM concentrations of test compounds for the MAO-B enzyme activities. The type of enzyme inhibition was determined using variable concentrations of MAO-A substrate (10–360 µM) and MAO-B substrate (2–64 µM) for the respective enzyme assay. […] A Lineweaver–Burk double reciprocal plot was generated, and the mode of inhibition was determined by visual examination of the plot. The slope of the reciprocal plots was plotted against the inhibitor concentrations and determined the x-axis intercept that represented the inhibitor constant, Ki value.
All experiments were performed in triplicates and data are presented as mean ± standard error of the mean (SEM). The raw data are provided in Supplementary Data, Table S1. Enzyme kinetic data were analyzed using the Lineweaver–Burk plot. Statistical analysis was performed by Student’s t-test using GraphPad Prism Ver. 7.0 (GraphPad Prism Software Inc., San Diego, CA, USA).

[1] = UroB 0.4 µM, MAO-A substrate 10 uM
[2] = UroB 0.4 µM, MAO-A substrate 20 uM
[3] = UroB 0.4 µM, MAO-A substrate 40 uM
[4] = UroB 0.4 µM, MAO-A substrate 80 uM
[5] = UroB 0.4 µM, MAO-A substrate 160 uM
[6] = UroB 0.4 µM, MAO-A substrate 320 uM
[7] = UroB 2 µM, MAO-A substrate 10 uM
[8] = UroB 2 µM, MAO-A substrate 20 uM
[9] = UroB 2 µM, MAO-A substrate 40 uM
[10] = UroB 2 µM, MAO-A substrate 80 uM
[11] = UroB 2 µM, MAO-A substrate 160 uM
[12] = UroB 2 µM, MAO-A substrate 320 uM

- mode of inhibition of MAO-A (Lineweaver–Burk plot): mixed mode of inhibition
- MAO-A assay signal (luminescence), Average [1]: 1545
- MAO-A assay signal (luminescence) [1]: 1603 and 1392 and 1640
- MAO-A assay signal (luminescence), Average [2]: 2811.33
- MAO-A assay signal (luminescence) [2]: 2815 and 2835 and 2784
- MAO-A assay signal (luminescence), Average [3]: 5085
- MAO-A assay signal (luminescence) [3]: 5099 and 4835 and 5321
- MAO-A assay signal (luminescence), Average [4]: 9642.33
- MAO-A assay signal (luminescence) [4]: 9741 and 9698 and 9488
- MAO-A assay signal (luminescence), Average [5]: 17162.3
- MAO-A assay signal (luminescence) [5]: 17107 and 16984 and 17396
- MAO-A assay signal (luminescence), Average [6]: 26885
- MAO-A assay signal (luminescence) [6]: 27251 and 26905 and 26499
- Transformed (reciprocal of MAO-A assay signal), Average (UroB 0.4 µM, [1/S] 0.003125): 3.72e-5
- Transformed (reciprocal of MAO-A assay signal) (UroB 0.4 µM, [1/S] 0.003125): 3.67e-5 and 3.717e-5 and 3.774e-5
- Transformed (reciprocal of MAO-A assay signal), Average (UroB 0.4 µM, [1/S] 0.00625): 5.827e-5
- Transformed (reciprocal of MAO-A assay signal) (UroB 0.4 µM, [1/S] 0.00625): 5.846e-5 and 5.888e-5 and 5.748e-5
- Transformed (reciprocal of MAO-A assay signal), Average (UroB 0.4 µM, [1/S] 0.0125): 0.0001037
- Transformed (reciprocal of MAO-A assay signal) (UroB 0.4 µM, [1/S] 0.0125): 0.0001027 and 0.0001031 and 0.0001054
- Transformed (reciprocal of MAO-A assay signal), Average (UroB 0.4 µM, [1/S] 0.025): 0.0001967
- Transformed (reciprocal of MAO-A assay signal) (UroB 0.4 µM, [1/S] 0.025): 0.0001961 and 0.0002068 and 0.0001879
- Transformed (reciprocal of MAO-A assay signal), Average (UroB 0.4 µM, [1/S] 0.05): 0.0003557
- Transformed (reciprocal of MAO-A assay signal) (UroB 0.4 µM, [1/S] 0.05): 0.0003552 and 0.0003527 and 0.0003592
- Transformed (reciprocal of MAO-A assay signal), Average (UroB 0.4 µM, [1/S] 0.1): 0.0006472
- Transformed (reciprocal of MAO-A assay signal) (UroB 0.4 µM, [1/S] 0.1): 0.0006238 and 0.0007184 and 0.0006098
- MAO-A assay signal (luminescence), Average [7]: 917
- MAO-A assay signal (luminescence) [7]: 965 and 892 and 894
- MAO-A assay signal (luminescence), Average [8]: 1607
- MAO-A assay signal (luminescence) [8]: 1578 and 1604 and 1639
- MAO-A assay signal (luminescence), Average [9]: 2957.33
- MAO-A assay signal (luminescence) [9]: 3058 and 2874 and 2940
- MAO-A assay signal (luminescence), Average [10]: 5505.33
- MAO-A assay signal (luminescence) [10]: 5631 and 5490 and 5395
- MAO-A assay signal (luminescence), Average [11]: 10332.7
- MAO-A assay signal (luminescence) [11]: 10318 and 10224 and 10456
- MAO-A assay signal (luminescence), Average [12]: 17850.7
- MAO-A assay signal (luminescence) [12]: 18126 and 17343 and 18083
- Transformed (reciprocal of MAO-A assay signal), Average (UroB 2 µM, [1/S] 0.003125): 5.602e-5
- Transformed (reciprocal of MAO-A assay signal) (UroB 2 µM, [1/S] 0.003125): 5.517e-5 and 5.766e-5 and 5.53e-5
- Transformed (reciprocal of MAO-A assay signal), Average (UroB 2 µM, [1/S] 0.00625): 9.678e-5
- Transformed (reciprocal of MAO-A assay signal) (UroB 2 µM, [1/S] 0.00625): 9.6918e-5 and 9.781e-5 and 9.564e-5
- Transformed (reciprocal of MAO-A assay signal), Average (UroB 2 µM, [1/S] 0.0125): 0.0001816
- Transformed (reciprocal of MAO-A assay signal) (UroB 2 µM, [1/S] 0.0125): 0.0001776 and 0.0001821 and 0.0001854
- Transformed (reciprocal of MAO-A assay signal), Average (UroB 2 µM, [1/S] 0.025): 0.0003381
- Transformed (reciprocal of MAO-A assay signal) (UroB 2 µM, [1/S] 0.025): 0.000327 and 0.0003479 and 0.0003401
- Transformed (reciprocal of MAO-A assay signal), Average (UroB 2 µM, [1/S] 0.05): 0.0006223
- Transformed (reciprocal of MAO-A assay signal) (UroB 2 µM, [1/S] 0.05): 0.0006337 and 0.0006234 and 0.0006101
- Transformed (reciprocal of MAO-A assay signal), Average (UroB 2 µM, [1/S] 0.1): 0.001091
- Transformed (reciprocal of MAO-A assay signal) (UroB 2 µM, [1/S] 0.1): 0.001036 and 0.001121 and 0.001119
- Michaelis-Menten best-fit Vmax of MAO-A, Average (in presence of UroB 0.4 uM): 65357.3
- Michaelis-Menten best-fit Vmax of MAO-A (in presence of UroB 0.4 uM): 61114 and 67822 and 67136
- Michaelis-Menten best-fit Vmax of MAO-A, Average (in presence of UroB 2 uM): 66008.7
- Michaelis-Menten best-fit Vmax of MAO-A (in presence of UroB 2 uM): 58741 and 70969 and 68316
- Ki (x-axis intercept of slopes of Lineweaver–Burk plots vs inhibitor concentration): 2300 nM
SMILES: O=c1oc2cc(O)ccc2c2ccccc12 [UB, urolithin-B]

Reference: paper PMC7345905, “Microbial Metabolite Urolithin B Inhibits Recombinant Human Monoamine Oxidase A Enzyme” (Metabolites, 2020)
